Assay results published in US20160199371A1, “PHARMACEUTICAL COMPOSITION HAVING PYRIMIDINE COMPOUND AS ACTIVE INGREDIENT” (ASTELLAS PHARMA INC, priority 2013, published 2016).

Columns and labels:
[1] = target: T1, human recombinant FGFR4 (Homo sapiens, UniProt P22455); experiment: FGFR4 enzyme assay; type: biochemical; settings: test compound 10 nM; read-out: FGFR4 Kinase Activity Inhibitory Rate
T1 construct: purchased CARNA BIOSCIENCES; Inc. 08CBS-0716C
Protocol: The outline of the measurement method is shown below.
Into a well of a 384-well plate,
(1) 4 μL of a compound solution was added,
(2) 2 μL of an FGFR4 enzyme (3 ng/μL) diluted with a reaction buffer was added,
(4) the mixture was allowed to undergo a reaction at room temperature for 30 minutes (concentration of the test compound species during assay of 10 nM).
(5) 15 μL/well of a 20 mM EDTA solution was added thereto to stop the reaction, and then in a LabChip EZ Reader (Perkin Elmer), the amount of a phosphorylated substrate peptide produced by the kinase reaction of FGFR4 was measured.

[2] = tested on: HuH-7 cell; experiment: Growth assay of FGF19 gene amplification-positive liver cancer cell (HuH-7); type: cell-based; settings: Homo sapiens, Huh-7, 120 h; test compound 37 nM, 5 days; read-out: HuH-7 Cell Growth Inhibitory Rate
Protocol: After 5 days from the addition of the test compound solution, the number of HuH-7 cells were measured with ARVO×3 (Perkin Elmer) using a CellTiter-Glo Luminescent Cell Viability Assay (Promega). […] That is, the inhibitory rate was calculated by <the growth inhibitory rate (%)>=<1−(the measured value of the well to which the test compound was added>−<the measured value of the well to which the cells were not added (only medium present)>)/{<the measured value of the well to which the test compound was not added (only DMSO was added)>−<the measured value of the well to which the cells were not added (only medium present)}]×100.

[3] = tested on: FGF19 gene amplification-positive liver cancer cell (HuH-7); experiment: Antitumor test using mouse model subcutaneously transplanted with HuH-7 cells; type: in vivo, nude mice; settings: 1 mg/kg/day oral once daily
Protocol: HuH-7 cells at 3×10^6 cells/0.1 mL (solution suspended in PBS and Matrigel at 1:1) was subcutaneously transplanted to nude mice (CanN.Cg-Foxn1 nu/CrlCrlj(nu/nu): Charles River Laboratories Japan, Inc., male, 4-5 week old). After about 3 weeks after the transplantation, the mice were grouped according to the tumor volumes and body weights. […] The test compound was made into a suspension using a 0.5% aqueous methyl cellulose solution and orally administered once a day daily. […] For the tumor volume, a short diameter and long diameter were measured using a calipers, and the tumor volume was calculated by (tumor volume mm^3)=(short diameter mm×short diameter mm×long diameter mm)/2. […] The tumor growth inhibitory rate of test compound was calculated by <the tumor growth inhibitory rate (%)>=<1−(increase in the tumor volume of the test compound-administered group/increase in the tumor volumes of the control group)>×100. The increase in the tumor volume was calculated by (increase in the tumor volume)=(the tumor volume on the final day of each group)−(the tumor volume on the 0th day of each group).

[4] = tested on: surgically unresectable liver cancer; settings: extension from 7.9 months; N Engl J Med. 2008; cited from earlier work

T1 sequence (P22455 22-802): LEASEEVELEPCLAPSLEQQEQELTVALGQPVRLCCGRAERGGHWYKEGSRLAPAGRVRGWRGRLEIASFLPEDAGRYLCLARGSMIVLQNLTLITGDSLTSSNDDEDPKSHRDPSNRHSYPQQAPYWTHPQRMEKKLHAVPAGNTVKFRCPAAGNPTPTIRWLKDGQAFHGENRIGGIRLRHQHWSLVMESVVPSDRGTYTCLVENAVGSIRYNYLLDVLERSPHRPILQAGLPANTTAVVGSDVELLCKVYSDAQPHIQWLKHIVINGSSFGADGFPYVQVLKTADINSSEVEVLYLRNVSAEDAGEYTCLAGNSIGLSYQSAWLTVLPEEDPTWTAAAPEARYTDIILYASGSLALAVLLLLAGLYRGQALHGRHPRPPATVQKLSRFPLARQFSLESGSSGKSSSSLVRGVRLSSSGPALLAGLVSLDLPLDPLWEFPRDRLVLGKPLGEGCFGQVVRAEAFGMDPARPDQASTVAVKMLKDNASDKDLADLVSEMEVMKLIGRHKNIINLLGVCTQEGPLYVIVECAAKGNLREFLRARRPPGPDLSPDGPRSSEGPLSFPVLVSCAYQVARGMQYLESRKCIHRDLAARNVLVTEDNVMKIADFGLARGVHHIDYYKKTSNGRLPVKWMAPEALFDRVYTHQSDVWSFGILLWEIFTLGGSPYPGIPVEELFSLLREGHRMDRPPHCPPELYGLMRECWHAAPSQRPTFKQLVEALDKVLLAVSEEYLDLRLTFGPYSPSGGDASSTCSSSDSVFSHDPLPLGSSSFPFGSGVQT

| inhibition at 0.01 µM [1] [%] | Compound | inhibition at 0.037 µM [2] [%] | Tumor growth inhibitory rate ([3]; final day 10th day) [%] | Tumor growth inhibitory rate ([3]; final day 9th day) [%] | survival [4] [months] |
| --- | --- | --- | --- | --- | --- |
| 78 | COc1cc(Nc2ncc(OCc3c(F)c(OC)cc(OC)c3F)cn2)ccc1N1CCC(N2CCN(C)CC2)CC1 [Compound A, 5-[(2,6-difluoro-3,5-dimethoxybenzyl)oxy]-N-{3-methoxy-4-[4-(4-methylpiperazin-1-yl)piperidin-1-yl]phenyl}pyrimidin-2-amine] | 53 | 80 |  |  |
| 82 | COc1cc(OC)c(F)c(COc2cnc(Nc3ccc(N4CCN(C)CC4)cc3)nc2)c1F [Compound D, 5-[(2,6-difluoro-3,5-dimethoxybenzyl)oxy]-N-[4-(4-methylpiperazin-1-yl)phenyl]pyrimidin-2-amine] | 65 | 67 |  |  |
| 31 | COc1cc(OC)c(F)c(COc2cnc(Nc3cc(CN4CCN(C)CC4)n(C)n3)nc2)c1F [Compound E, 5-[(2,6-difluoro-3,5-dimethoxybenzyl)oxy]-N-{1-methyl-5-[(4-methylpiperazin-1-yl)methyl]-1H-pyrazol-3-yl}pyrimidin-2-amine] | 11 |  | 44 |  |
|  | CNC(=O)c1cc(Oc2ccc(NC(=O)Nc3ccc(Cl)c(C(F)(F)F)c3)cc2)ccn1 [sorafenib] |  |  |  | 10.7 |
